The test system of data set [1] is HCV genotype 1b Conl strain subgenomic luciferase replicon (Zluc). The data set is described as follows: Luciferase replicon assay, genotype 1b. The data set is classed as cell-based. To be noted: Hepatitis C virus, 72 h, read-out: EC50 1b. On the procedure:
(§1) The HCV luciferase replicon assay measures the ability of a test compound to inhibit HCV replication in cell culture after 3 days of treatment in a human hepatoma cell line (Huh-7) bearing a HCV replicon containing a luciferase-neomycin phosphotransferase fusion gene. The inhibition of HCV replication was measured by quantification of luciferase protein expression. Briefly, Huh-7 cells containing either the HCV genotype 1a H77 strain or genotype 1b Conl strain subgenomic luciferase replicon (H1a-luc or Zluc, respectively) were grown in DMEM containing glucose, L-glutamine and sodium pyruvate, 10% fetal bovine serum (FBS), 100 IU/mL penicillin, 100 μg/mL streptomycin, 2 mM GlutaMAX, non-essential amino acids and 0.25 (H1a-luc) or 0.5 (Zluc) mg/mL G418. GlutaMAX was obtained from Invitrogen, Corp.; all other media reagents were obtained from Mediatech, Inc. For dose-response testing, the cells were seeded in 96-well plates at 1×10^4 (H1a-luc) or 7.5×10^3 (Zluc) cells/well in a volume of 50 μL, and incubated at 37° C./5% CO2. Three hours after plating, 50 μL of ten 5-fold serial dilutions of compound were added, and cell cultures were incubated at 37° C./5% CO2 for 72 hours. In all cases, Huh-7 cells lacking the HCV replicon served as negative control. To assess luciferase expression, the media/compound was removed from the plates and ONE-glo Luciferase assay reagent (Promega) was added to each well. The assay plates were shaken for 3 minutes at room temperature and luciferase activity for each well was measured with a 1 sec read time on the Victor^3V multilabel counter using a 700 nm cut-off filter (Perkin Elmer). EC50 values were calculated from dose response curves from the resulting best-fit equations determined by Microsoft Excel and XLfit 4.1 software.
On the technique in general: A replicon is a self-replicating genome or part of one, used to study replication in cells.

Data set [2] is described as follows: Cytotoxicity evaluation in luciferase replicon cells (Cell Titer 96 AQueous One). To be noted: human; Table 1B, cellular viability. The format is cell-based, human. On the procedure: For cytotoxicity evaluation, H1a-luc or Zluc cells were treated with compounds as described above and cellular viability was monitored using the Cell Titer 96 AQueous One Solution Cell Proliferation Assay (Promega). Plates were then read at 490 nm in a Victor^3V 1420 multilabel counter (Perkin Elmer) and CC50 concentrations were determined using Microsoft Excel and XLfit 4.1 software.

The subject of data set [3] is HCV genotype 2a-specific NS5A gene within the 1b-replicon. The data set is described as follows: Luciferase replicon assay, NS5A-intergenotypic stable cell line genotype 2a. The data set is classed as cell-based. To be noted: Hepatitis C virus, read-out: EC50 2a.
Excerpt: (§2) The nucleotide sequences of the NS5A region of genotype 2a (GenBank Accession #AB047639), genotype 3a (GenBank Accession #D17763), and genotype 4a (GenBank Accession#DQ418788) were synthesized by an outside vendor. The NS5A region of each of these genotypes included the first 11 amino acids of the protease recognition sequence of genotype 1b, as well as the last 10 amino acids of genotype 1b. The NS5A gene cassettes were excised with site specific restriction endonucleases and ligated into a ZS11-luciferase genotype 1b backbone (backbone contains the genotype 1b NS3 protease, NS4a, NS4b, and NS5b coding regions) with similarly cut restriction enzyme sites. Thus, the newly constructed plasmid contains a genotype 2a-, 3a- or 4a-specific NS5A gene within the 1b-replicon.
(§3) These new intergenotypic plasmids were used to establish stable cell lines. RNA was generated from the NS5A intergenotypic plasmids and used in conjunction with a lipofectin reagent to transfect a cured Huh7 cell line. Transfected cells were selected for with G418. After selection has occurred the stable cell lines were propagated, tested for luciferase activity, and RT-PCR with genotype specific primers (either 1a, 2a, 3a, or 4a). Stable cell lines containing the intergenotypic replicon were then fully sequenced and analysed for proper expression of NS3, NS5A and NS5B proteins.
(§4) Drug titration analysis was performed using the luciferase replicon assay described herein.
as §1

The test system of data set [4] is HCV genotype 3a-specific NS5A gene within the 1b-replicon. Nature of the data set: Luciferase replicon assay, NS5A-intergenotypic stable cell line genotype 3a. The data set is classed as cell-based. To be noted: Hepatitis C virus, read-out: EC50 3a.
Excerpt: as §2, §3, §4, §1

For data set [5], the system named is HCV genotype 4a-specific NS5A gene within the 1b-replicon. The data set is described as follows: Luciferase replicon assay, NS5A-intergenotypic stable cell line genotype 4a. The data set is classed as cell-based. To be noted: Hepatitis C virus, read-out: EC50 4a.
Excerpt: as §2, §3, §4, §1

Molecules are shown by their SMILES.

By EC50 is commonly meant the concentration at which the effect is half-maximal. What is called CC50 is the concentration at which the toxic effect on the cells reaches its halfway point. Read a low CC50 as harm at low concentration. For the compound `COC(=O)N[C@H](C(=O)N1CCCC1c1ncc(-c2ccc(-n3ccc4c(-c5cnc(C6CCCN6C(=O)[C@@H](NC(=O)OC)C(C)C)[nH]5)csc43)c(Cl)c2)[nH]1)C(C)C` (some centres unmarked) [Compound A213], the EC50 in data set [1] is under 0.1 nM. The CC50 at 72 h in data set [2] is 10000 to 75000 nM.

Take `COC(=O)N[C@H](C(=O)N1CCC[C@H]1c1ncc(-c2ccc(-c3csc4c(-c5ccc6[nH]c([C@@H]7CCCN7C(=O)[C@@H](NC(=O)OC)C(C)C)nc6c5)csc34)cc2)[nH]1)C(C)C` [Compound A171, [(S)-1-((S)-2-{4-[4-(6-{2-[(S)-1-((S)-2-methoxycarbonylamino-3-methyl-butyryl)-pyrrolidin-2-yl]-3H-benzoimidazol-5-yl}-thieno[3,2-b]thiophen-3-yl)-phenyl]-1H-imidazol-2-yl}-pyrrolidine-1-carbonyl)-2-methyl-propyl]-carbamic acid methyl ester]: the EC50 in data set [1] is under 0.1 nM; in data set [3] it was 0.1 to 1 nM; in data set [4], 1 to 10 nM; in data set [5], under 0.1 nM. The compound further had a CC50 at 72 h in data set [2] of over 75000 nM.

In the case of `COC(=O)N[C@H](C(=O)N1CCCC1c1nc(-c2cc3sc(-c4ccc(-c5cnc([C@@H]6CCCN6C(=O)[C@@H](c6ccccc6)N6CCCCC6)[nH]5)cc4)cc3o2)c[nH]1)C(C)C` (some centres unmarked) [Compound A212], the EC50 in data set [1], in data set [3], in data set [4] and in data set [5] was under 0.1 nM each time. Also, in data set [2], the CC50 at 72 h lay in the range of 10000 to 75000 nM.

For the compound `COC(=O)N[C@H](C(=O)N1CCC[C@H]1c1nc2cc(-c3csc4c(-c5ccc(-c6cnc([C@@H]7CCCN7C(=O)[C@H](NC(=O)OC)c7ccccc7)[nH]6)cc5)csc34)ccc2[nH]1)C(C)C` [Compound A169, [(S)-1-((S)-2-{6-[6-(4-{(S)-2-[1-((R)-2-methoxycarbonylamino-2-phenyl-acetyl)-pyrrolidin-2-yl]-3H-imidazol-4-yl}-phenyl)-thieno[3,2-b]thiophen-3-yl]-1H-benzoimidazol-2-yl}-pyrrolidine-1-carbonyl)-2-methyl-propyl]-carbamic acid methyl ester], the EC50 in data set [1], in data set [3], in data set [4] and in data set [5] was under 0.1 nM throughout. This compound had a CC50 at 72 h in data set [2] of over 75000 nM.

Regarding `COC(=O)N[C@H](C(=O)N1CCC[C@H]1c1ncc(-c2ccc(-c3csc4c(-c5ccc6[nH]c([C@@H]7CCCN7C(=O)[C@H](NC(=O)OC)c7ccccc7)nc6c5)csc34)cc2)[nH]1)C(C)C` [Compound A172, [(S)-1-((S)-2-{5-[4-(6-{(S)-2-[1-((R)-2-methoxycarbonylamino-2-phenyl-acetyl)-pyrrolidin-2-yl]-3H-benzoimidazol-5-yl}-thieno[3,2-b]thiophen-3-yl)-phenyl]-1H-imidazol-2-yl}-pyrrolidine-1-carbonyl)-2-methyl-propyl]-carbamic acid methyl ester], the EC50 in data set [1], in data set [3], in data set [4] and in data set [5] was under 0.1 nM in each case. The compound also registered a CC50 at 72 h in data set [2] of over 75000 nM.

`COC(=O)N[C@H](C(=O)N1CCC[C@H]1c1nc2ccc(-c3cc4sc(-c5ccc(-c6c[nH]c([C@@H]7CCCN7C(=O)[C@H](NC(=O)OC)c7ccccc7)n6)cc5)cc4s3)cc2[nH]1)C(C)C` [Compound A215, [(S)-1-((S)-2-{6-[5-(4-{(S)-2-[1-((R)-2-methoxycarbonylamino-2-phenyl-acetyl)-pyrrolidin-2-yl]-1H-imidazol-4-yl}-phenyl)-thieno[3,2-b]thiophen-2-yl)-1H-benzoimidazol-2-yl}-pyrrolidine-1-carbonyl)-2-methyl-propyl]-carbamic acid methyl ester]: the EC50 in data set [1], in data set [3], in data set [4] and in data set [5] was under 0.1 nM in each case. Further, the cytotoxic concentration (CC50) at 72 h in data set [2] is over 75000 nM.

Take `COC(=O)N[C@H](C(=O)N1CCCC1c1nc(-c2cc3sc(-c4cnc([C@@H]5CCCN5C(=O)[C@@H](NC(=O)OC)C(C)C)[nH]4)cc3s2)c[nH]1)C(C)C` (some centres unmarked) [Compound A101]: the EC50 in data set [1] was under 0.1 nM; in data set [3] it was 1 to 10 nM; in data set [4], 1 to 10 nM; in data set [5], 1 to 10 nM. In data set [2], this compound showed a CC50 at 72 h of over 75000 nM.

Consider `COC(=O)N[C@H](C(=O)N1CCC[C@H]1c1ncc(-c2ccc(-c3csc4c(-c5cnc([C@@H]6CCCN6C(=O)[C@H](NC(=O)OC)c6ccccc6)[nH]5)csc34)cc2)[nH]1)C(C)C` [Compound A200, [(S)-1-((S)-2-{4-[4-(6-{2-[(S)-1-((R)-2-methoxycarbonylamino-2-phenyl-acetyl)-pyrrolidin-2-yl]-3H-imidazol-4-yl}-thieno[3,2-b]thiophen-3-yl)-phenyl]-1H-imidazol-2-yl}-pyrrolidine-1-carbonyl)-2-methyl-propyl]-carbamic acid methyl ester], for which the concentration giving a half-maximal response (EC50) in data set [1], in data set [3], in data set [4] and in data set [5] was under 0.1 nM each time. Also, the CC50 at 72 h in data set [2] is over 75000 nM.

For the compound `COC(=O)N[C@H](C(=O)N1CCC[C@H]1c1ncc(-c2csc3c(-c4ccc5[nH]c([C@@H]6CCCN6C(=O)[C@@H](NC(=O)OC)C(C)C)nc5c4)csc23)[nH]1)C(C)C` [Compound A173, ((S)-1-{(S)-2-[6-(6-{(S)-2-[1-((S)-2-methoxycarbonylamino-3-methyl-butyryl)-pyrrolidin-2-yl]-1H-imidazol-4-yl}-thieno[3,2-b]thiophen-3-yl)-1H-benzoimidazol-2-yl]-pyrrolidine-1-carbonyl}-2-methyl-propyl)-carbamic acid methyl ester], the EC50 in data set [1] is under 0.1 nM; in data set [3], 1 to 10 nM; in data set [4], 1 to 10 nM; in data set [5], 1 to 10 nM. In addition, the CC50 at 72 h in data set [2] was in the range of 10000 to 75000 nM.

As to `COC(=O)N[C@H](C(=O)N1CCCC1c1ncc(-c2cc3sc(-c4ccc(-c5cnc([C@@H]6CCCN6C(=O)[C@H](NC(=O)OC)c6ccccc6)[nH]5)cc4)cc3s2)[nH]1)C(C)C` (some centres unmarked) [Compound A217], the EC50 in data set [1], in data set [3], in data set [4] and in data set [5] was under 0.1 nM in each case. In addition, the CC50 at 72 h in data set [2] is over 75000 nM.

The record behind these values is patent US9187496B2 (priority 2009, dated 2015).
